What all share (type): biochemical
The target of experiment [1] is T1, FlgE (flagellar hook protein) (Treponema denticola, UniProt Q9RQB6).
T1 sequence (Q9RQB6 11-454): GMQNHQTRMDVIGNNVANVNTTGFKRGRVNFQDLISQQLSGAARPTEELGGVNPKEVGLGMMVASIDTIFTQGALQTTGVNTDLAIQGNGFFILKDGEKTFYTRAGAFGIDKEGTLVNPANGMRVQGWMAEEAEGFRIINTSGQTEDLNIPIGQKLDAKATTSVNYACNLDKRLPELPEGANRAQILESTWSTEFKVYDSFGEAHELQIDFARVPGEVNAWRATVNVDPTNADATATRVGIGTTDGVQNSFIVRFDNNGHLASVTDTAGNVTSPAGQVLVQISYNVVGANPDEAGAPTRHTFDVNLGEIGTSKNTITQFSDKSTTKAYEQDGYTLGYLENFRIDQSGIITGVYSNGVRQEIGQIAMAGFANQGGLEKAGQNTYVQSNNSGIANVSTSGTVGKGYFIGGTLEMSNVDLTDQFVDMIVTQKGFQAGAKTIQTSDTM
Put plainly: ELISA of Lal crosslinking between purified FlgE subunits, dose-response.

Experiment [2] concerns the target T1, FlgE (flagellar hook protein). Put plainly: ELISA of Lal crosslinking between purified FlgE subunits.
For experiment [3] the target is unchanged. Put plainly: ELISA of Lal crosslinking between purified FlgE subunits, dose-response. This is another data set of the same source.

Structures are written as SMILES.

As for `Oc1c(Cl)cc(Cl)c(Cl)c1Cc1c(O)c(Cl)cc(Cl)c1Cl` [hexachlorophene], the IC50 in experiment [1] was determined as 47.7 µM.
`C=CCc1ccc(O)c(-c2ccc(O)c(CC=C)c2)c1` [honokiol]: the IC50 in experiment [2] was 118 µM.
As to `COc1cc(C(=O)NS(=O)(=O)c2ccccc2C)ccc1Cc1cn(C)c2ccc(NC(=O)OC3CCCC3)cc12` [zafirlukast], the IC50 in experiment [3] worked out at 92 µM.

For the origin of these results see PMC12906330 (SLAS discovery : advancing life sciences R & D, 2025).
